The NIST ThermoML archive (doi:10.1021/acs.jced.5b00367)
“And” between values parts separate entries of the source, which are not always exact repeats. Equal values may be shown once. ± gives the expanded uncertainty stated by the source.

Assay: wn = mass fraction of the nth substance listed
Conditions: 101 kPa, Liquid, Alternating current cell with electrodes, w1 = 0.01

CCCCCCCCCCCC[N+](CC)(CC)CCCCCCCCCCCC.[Br-] [didodecyldiethylammonium bromide] + O
Conditions	electrical conductivity
315.45 K	0.0223 ± 0.0089 S/m
315.55 K	0.0224 ± 0.009 S/m
315.65 K	0.0224 ± 0.009 S/m
315.75 K	0.0226 ± 0.009 S/m
315.85 K	0.0227 ± 0.0091 S/m
315.95 K	0.0228 ± 0.0091 S/m
316.05 K	0.0228 ± 0.0091 S/m
316.15 K	0.023 ± 0.0092 S/m
316.25 K	0.023 ± 0.0092 S/m
316.35 K	0.0231 ± 0.0092 S/m
316.45 K	0.0233 ± 0.0093 S/m
316.55 K	0.0234 ± 0.0094 S/m
316.65 K	0.0236 ± 0.0094 S/m
316.85 K	0.0238 ± 0.0095 S/m
317.05 K	0.0239 ± 0.0096 S/m
317.15 K	0.0242 ± 0.0097 S/m
317.25 K	0.0242 ± 0.0097 S/m
317.35 K	0.0244 ± 0.0098 S/m
317.45 K	0.0245 ± 0.0098 S/m
317.55 K	0.0246 ± 0.0098 S/m
317.65 K	0.0247 ± 0.0099 S/m
317.75 K	0.0249 ± 0.01 S/m
317.85 K	0.0249 ± 0.01 S/m
317.95 K	0.0252 ± 0.01 S/m
318.05 K	0.0253 ± 0.01 S/m
318.15 K	0.0253 ± 0.01 S/m
318.25 K	0.0255 ± 0.01 S/m
318.35 K	0.0257 ± 0.01 S/m
318.45 K	0.0259 ± 0.01 S/m
318.55 K	0.0259 ± 0.01 S/m
318.65 K	0.026 ± 0.01 S/m
318.75 K	0.0262 ± 0.01 S/m
318.85 K	0.0263 ± 0.011 S/m
318.95 K	0.0264 ± 0.011 S/m
319.05 K	0.0265 ± 0.011 S/m
319.15 K	0.0266 ± 0.011 S/m
319.25 K	0.0268 ± 0.011 S/m
319.35 K	0.027 ± 0.011 S/m
319.45 K	0.0271 ± 0.011 S/m
319.55 K	0.0272 ± 0.011 S/m
319.65 K	0.0273 ± 0.011 S/m
319.75 K	0.0275 ± 0.011 S/m
319.85 K	0.0276 ± 0.011 S/m
319.95 K	0.0277 ± 0.011 S/m
320.05 K	0.0278 ± 0.011 S/m
320.15 K	0.028 ± 0.011 S/m
320.25 K	0.0282 ± 0.011 S/m
320.35 K	0.0283 ± 0.011 S/m
320.45 K	0.0283 ± 0.011 S/m
320.55 K	0.0286 ± 0.011 S/m
320.65 K	0.0288 ± 0.012 S/m
320.75 K	0.0289 ± 0.012 S/m
320.85 K	0.029 ± 0.012 S/m
320.95 K	0.0292 ± 0.012 S/m
321.05 K	0.0293 ± 0.012 S/m
321.15 K	0.0294 ± 0.012 S/m
321.25 K	0.0296 ± 0.012 S/m
321.35 K	0.0298 ± 0.012 S/m
321.45 K	0.03 ± 0.012 S/m
321.55 K	0.0301 ± 0.012 S/m
321.65 K	0.0303 ± 0.012 S/m
321.75 K	0.0304 ± 0.012 S/m
321.85 K	0.0306 ± 0.012 S/m
321.95 K	0.0308 ± 0.012 S/m
322.15 K	0.031 ± 0.012 S/m
322.25 K	0.0312 ± 0.012 S/m
322.35 K	0.0314 ± 0.013 S/m
322.45 K	0.0315 ± 0.013 S/m
322.55 K	0.0316 ± 0.013 S/m
322.65 K	0.0317 ± 0.013 S/m
322.75 K	0.0318 ± 0.013 S/m
322.85 K	0.0319 ± 0.013 S/m
323.35 K	0.0323 ± 0.013 S/m
323.55 K	0.0324 ± 0.013 S/m
323.75 K	0.0326 ± 0.013 S/m
324.05 K	0.033 ± 0.013 S/m
324.25 K	0.0332 ± 0.013 S/m
324.55 K	0.0334 ± 0.013 S/m
324.75 K	0.0338 ± 0.014 S/m
325.05 K	0.0339 ± 0.014 S/m
325.35 K	0.0344 ± 0.014 S/m
325.55 K	0.0348 ± 0.014 S/m
325.85 K	0.0352 ± 0.014 S/m
326.35 K	0.036 ± 0.014 S/m
326.75 K	0.0368 ± 0.015 S/m
327.35 K	0.0372 ± 0.015 S/m
327.95 K	0.0384 ± 0.015 S/m
328.55 K	0.0392 ± 0.016 S/m
328.85 K	0.0402 ± 0.016 S/m
329.55 K	0.0411 ± 0.016 S/m
330.25 K	0.0426 ± 0.017 S/m
331.05 K	0.0442 ± 0.018 S/m
331.85 K	0.0461 ± 0.018 S/m
332.25 K	0.0461 ± 0.018 S/m
332.95 K	0.0482 ± 0.019 S/m
333.35 K	0.049 ± 0.02 S/m
333.55 K	0.0491 ± 0.02 S/m
333.75 K	0.0491 ± 0.02 S/m
333.85 K	0.0493 ± 0.02 S/m
333.95 K	0.0496 ± 0.02 S/m
334.05 K	0.0501 ± 0.02 S/m
334.15 K	0.0501 ± 0.02 S/m
334.25 K	0.0504 ± 0.02 S/m
334.35 K	0.0505 ± 0.02 S/m
334.45 K	0.0507 ± 0.02 S/m
334.55 K	0.0507 ± 0.02 S/m
334.65 K	0.0509 ± 0.02 S/m
334.75 K	0.0512 ± 0.02 S/m
334.85 K	0.0514 ± 0.021 S/m
334.95 K	0.0514 ± 0.021 S/m
335.05 K	0.0514 ± 0.021 S/m
335.15 K	0.0515 ± 0.021 S/m
335.25 K	0.0519 ± 0.021 S/m
335.35 K	0.052 ± 0.021 S/m
335.45 K	0.0521 ± 0.021 S/m
335.65 K	0.0524 ± 0.021 S/m
335.75 K	0.0526 ± 0.021 S/m
335.95 K	0.0528 ± 0.021 S/m
336.05 K	0.0531 ± 0.021 S/m
336.15 K	0.0531 ± 0.021 S/m
336.25 K	0.0532 ± 0.021 S/m
336.35 K	0.0536 ± 0.021 S/m
336.45 K	0.0537 ± 0.021 S/m
336.55 K	0.0539 ± 0.022 S/m
336.65 K	0.0542 ± 0.022 S/m
336.75 K	0.0544 ± 0.022 S/m
336.85 K	0.0545 ± 0.022 S/m
336.95 K	0.0546 ± 0.022 S/m
337.05 K	0.0548 ± 0.022 S/m
337.15 K	0.0549 ± 0.022 S/m
337.25 K	0.0551 ± 0.022 S/m
337.35 K	0.0552 ± 0.022 S/m
337.45 K	0.0553 ± 0.022 S/m
337.55 K	0.0556 ± 0.022 S/m
337.65 K	0.0556 ± 0.022 S/m
337.75 K	0.0558 ± 0.022 S/m
337.85 K	0.0559 ± 0.022 S/m
337.95 K	0.0563 ± 0.023 S/m
338.05 K	0.0564 ± 0.023 S/m
338.15 K	0.0566 ± 0.023 S/m
338.25 K	0.0568 ± 0.023 S/m
338.35 K	0.0569 ± 0.023 S/m
338.45 K	0.0571 ± 0.023 S/m
338.55 K	0.0573 ± 0.023 S/m
338.65 K	0.0575 ± 0.023 S/m
338.75 K	0.0577 ± 0.023 S/m
338.85 K	0.0578 ± 0.023 S/m
338.95 K	0.058 ± 0.023 S/m
339.05 K	0.0583 ± 0.023 S/m
339.15 K	0.0582 ± 0.023 S/m
339.25 K	0.0585 ± 0.023 S/m
339.35 K	0.0587 ± 0.023 S/m
339.45 K	0.0588 ± 0.024 S/m
339.55 K	0.0591 ± 0.024 S/m
339.65 K	0.0592 ± 0.024 S/m
339.75 K	0.0593 ± 0.024 S/m
339.85 K	0.0596 ± 0.024 S/m
339.95 K	0.0598 ± 0.024 S/m
340.05 K	0.06 ± 0.024 S/m
340.15 K	0.0602 ± 0.024 S/m
340.25 K	0.0605 ± 0.024 S/m
340.35 K	0.0606 ± 0.024 S/m
340.45 K	0.0608 ± 0.024 S/m
340.55 K	0.061 ± 0.024 S/m
340.65 K	0.0612 ± 0.024 S/m
340.75 K	0.0614 ± 0.025 S/m
340.85 K	0.0614 ± 0.025 S/m
340.95 K	0.0616 ± 0.025 S/m
341.05 K	0.062 ± 0.025 S/m
341.15 K	0.062 ± 0.025 S/m
341.25 K	0.0622 ± 0.025 S/m
341.35 K	0.0624 ± 0.025 S/m
341.45 K	0.0625 ± 0.025 S/m
341.55 K	0.0627 ± 0.025 S/m
341.65 K	0.0629 ± 0.025 S/m
341.75 K	0.063 ± 0.025 S/m
341.85 K	0.0633 ± 0.025 S/m
341.95 K	0.0633 ± 0.025 S/m
342.05 K	0.0637 ± 0.025 S/m
342.15 K	0.0639 ± 0.026 S/m
342.25 K	0.064 ± 0.026 S/m
342.35 K	0.0642 ± 0.026 S/m
342.45 K	0.0643 ± 0.026 S/m
342.55 K	0.0645 ± 0.026 S/m
342.65 K	0.0649 ± 0.026 S/m
342.75 K	0.0651 ± 0.026 S/m
342.85 K	0.0654 ± 0.026 S/m
342.95 K	0.0656 ± 0.026 S/m
343.05 K	0.0657 ± 0.026 S/m
343.15 K	0.0658 ± 0.026 S/m
343.25 K	0.0662 ± 0.026 S/m
343.35 K	0.0663 ± 0.027 S/m
343.45 K	0.0663 ± 0.027 S/m
343.55 K	0.0664 ± 0.027 S/m
343.65 K	0.0667 ± 0.027 S/m
343.75 K	0.0667 ± 0.027 S/m
343.85 K	0.067 ± 0.027 S/m
343.95 K	0.0674 ± 0.027 S/m
344.05 K	0.0675 ± 0.027 S/m
344.15 K	0.0674 ± 0.027 S/m
344.25 K	0.0677 ± 0.027 S/m
344.35 K	0.0678 ± 0.027 S/m
344.45 K	0.0679 ± 0.027 S/m
344.55 K	0.0679 ± 0.027 S/m
344.65 K	0.068 ± 0.027 S/m
344.75 K	0.0685 ± 0.027 S/m
344.85 K	0.0686 ± 0.027 S/m
344.95 K	0.0689 ± 0.028 S/m
345.05 K	0.0688 ± 0.028 S/m
345.15 K	0.069 ± 0.028 S/m
345.25 K	0.069 S/m and 0.0692 S/m
345.35 K	0.0692 ± 0.028 S/m
345.45 K	0.0694 ± 0.028 S/m
345.55 K	0.0697 ± 0.028 S/m
345.65 K	0.0699 ± 0.028 S/m
345.75 K	0.0699 ± 0.028 S/m
345.85 K	0.07 ± 0.028 S/m
345.95 K	0.0701 ± 0.028 S/m
346.05 K	0.0702 ± 0.028 S/m
346.15 K	0.0704 ± 0.028 S/m
346.25 K	0.0707 ± 0.028 S/m
346.35 K	0.0709 ± 0.028 S/m
346.45 K	0.0708 ± 0.028 S/m
346.55 K	0.0709 ± 0.028 S/m
346.65 K	0.0712 ± 0.028 S/m
346.75 K	0.0712 ± 0.028 S/m
346.85 K	0.0713 ± 0.029 S/m
